# Source: patent publication US20260218197A1, “EXTRACELLULAR VESICLE SECRETION REDUCING AGENT FOR REDUCING EXTRACELLULAR VESICLE SECRETION, AND USE OF THE SAME” (THEORIA SCIENCE INC., priority 2020, published 2026)
# Columns and labels:
# [1] = system: colorectal cancer cells HCT116; experiment: Amount of secreted EVs by the ExoScreen method; type: cell-based, human; conditions: HCT116 transformants, CMs and EV fractions, compared with transformants (NC)
# Procedure: (§1) EV detection was performed using an AlphaLISA reagent (Perkin Elmer) composed of AlphaScreen streptavidin-coated donor beads (6760002), AlphaLISA unconjugated acceptor beads (6062011), and an AlphaLISA universal buffer (AL001F), a 96-well half-area white plate (6005560, Perkin Elmer), and a detection device EnSpire Alpha 2300 Mutilabel plate reader (Perkin Elmer). Specifically, the EV detection was performed as follows. Each well of the plate was filled with 5 μL of EVs or 10 μL of CM (cell culture supernatant), 10 μL of a 5 nmol/L biotinylated antibody solution prepared using the above-described buffer, and 10 μL of 50 µg/mL AlphaLISA acceptor bead-conjugated antibody. […] Next, luminescence in the wells of the plate was measured using the detection device with the excitation wavelength set to 680 nm and the emission detection wavelength set to 615 nm. […]
# (§2) In a 6-well plate, 2 mL of the cancer cell suspension was seeded at 1.0×10^5 cells/well and incubated for 24 hours. […] 48 hours after the replacement, total RNA was extracted, and the expression of the gene of interest was measured by qPCR.
# (§3) Colorectal cancer cells HCT116 and lung cancer cells A549 were each transfected with miR-891b. […] Then, according to the ExoScreen method described above, the amounts of the secreted EVs were measured by measuring the signal intensities. […]
# [2] = system: lung cancer cells A549; experiment: Amount of secreted EVs by the ExoScreen method; type: cell-based, human; conditions: A549 transformants, CMs and EV fractions, compared with transformants (NC)
# Procedure: as §1, §2, §3
# [3] = system: PSAT1; experiment: PSAT1 gene (qPCR) and protein (Western blotting) expression in transformants; type: cell-based, human; conditions: HCT116 and A549 transformants
# Procedure: In a 6-well plate, 2 mL of the cancer cell suspension was seeded at 1.0×10^5 cells/well and incubated for 24 hours. Thereafter, 10 nmol/L of the intended nucleic acid molecules were added thereto, and the cells were transfected with the nucleic acid molecules using a transfection reagent (product name: DharmaFECT Transfection Reagent 1). The nucleic acid molecules used were the above-described miRNA and the above-described siRNA. After the incubation for 24 hours, the medium was replaced with the above-described advanced RPMI 1640 medium or advanced DMEM medium containing the antibiotic-antimycotic agent and 2 mmol/L-glutamine (Gibco). 48 hours after the replacement, total RNA was extracted, and the expression of the gene of interest was measured by qPCR. […]
# First, expression of the PSAT1 gene was detected in the above-described transformants (miR-891b) and the control transformants (NC) therefor. Then, assuming that the expression levels in the transformants (NC) were 1, the relative values of the expression levels in the respective transformants (miR-891b) were determined. […] Also, for the transformants (miR-891b) and the control transformants (NC), the PSAT1 protein expression was detected by Western blotting. As a control, β-actin was also detected. […]
# [4] = system: 3′ UTR of the human PSAT1 mRNA; experiment: Dual-Luciferase reporter assay with PSAT1 3′ UTR in HEK293 cells; type: cell-based; conditions: 48 hours after transfection
# Procedure: Thus, the effect of miR-891b was examined using the wild-type PSAT1 gene in which the above-described 7-base region in the 3′ UTR is the wild-type sequence (SEQ ID NO: 3: AAGTTGC) and a mutant-type PSAT1 gene in which the above-described 7-base region in the 3′ UTR is a mutated sequence (SEQ ID NO: 4: TTCAACG). Specifically, the following experiment was performed. The wild-type PSAT1 gene or the mutant-type PSAT1 gene was subcloned into a plasmid vector psiCHECK2, and human embryonic kidney cells (HEK293 cells) were transfected with this recombinant vector together with miR-891b or the negative control miRNA using Lipofectamine 3000. 48 hours after the transfection, the luciferase activity of the transformants was quantified using a plate reader according to the operating procedure of a Dual-Luciferase Reporter Assay System.
# The results obtained are shown in (D) of FIG. 3.
# [5] = system: colorectal cancer cells HCT116; experiment: CD63 immunofluorescence / coimmunostaining (intracellular EV accumulation); type: cell-based, human; conditions: HCT116 transformants
# Procedure: (§4) Colorectal cancer cells HCT116 and lung cancer cells A549 were transfected with siRNA (siPSAT1) in the same manner as in the item (2) in Example A1, and EV biogenesis after PSAT1 silencing was examined. For the respective silenced transformants, CD63 and PSAT1 were examined by immunofluorescence.
# (§5) Further, coimmunostaining of the EV marker CD63 and also an early endosome marker EEA1 or a late endosome marker Rab7 was conducted for the PSAT1-silenced transformants. As a result, no overlap was observed between EEA1 and CD63 in either the PSAT1-silenced transformants or the negative control transformants. […] On this account, the CD63 single-positive area was measured based on the intensity. […] This confirmed that EVs had accumulated in the cells.
# (§6) Specifically, the test was performed in the following manner. Colorectal cancer cells HCT116 and lung cancer cells A549 were each seeded in a 6-well plate at 1.5×10^5 cells/well (Day 0), and incubated for 24 hours in a medium (DMEM with 10% FBS, 1×anti-anti medium). After the incubation (Day 1), the above-described medium was removed, and thereafter, a serine-deficient medium and an inhibitor solution were added to the wells. The inhibitor solution was prepared by dissolving NCT-503 in DMSO, and the concentration of the inhibitor per well was set to 2.5 μmol/L. Then, after another 48 hours of incubation (Day 3), the medium in the wells was collected and the cells in the wells were counted. As negative controls (NC), the test was performed in the same manner, except that DMSO was added instead of the inhibitor solution.
# (§7) EVs accumulated in the cells were analyzed in the following manner. Specifically, the collected cells were immunostained, the CD63 single-positive area was measured based on the fluorescence intensity, and the fluorescence intensity measured in the area was divided by the number of nuclei to determine the amount of EVs accumulated in each cell. On the other hand, secreted EVs were collected from the collected medium and then subjected to the NTA. In the NTA, the amount of secreted EVs was determined as a relative value calculated assuming that the amount of the secreted EVs in the negative control was 1.
# [6] = system: lung cancer cells A549; experiment: as above; type: cell-based, human; conditions: A549 transformants
# Procedure: as §4, §5, §6, §7
substance,measurement,setting,value
"miR-891b: nucleic acid molecule miRNA, SEQ ID NO: 1: GCAACUUACCUGAGUCAUUGA (Product No. 4464066, Ambion) (listed as RNA, chemistry not given here)",relative value of the amount of secreted EVs (ExoScreen method),[1],significantly lower
same,relative value of the amount of secreted EVs (ExoScreen method),[2],significantly lower
same,PSAT1 protein expression,"[3]; Western blotting, vs transformants (NC)",reduced
same,PSAT1 gene expression,[3]; relative to transformants (NC),reduced
same,PSAT1 expression level (relative luciferase activity),[4]; mutated sequence in miR-891b recognition region,did not reduce
same,PSAT1 expression level (relative luciferase activity),[4]; wild-type PSAT1 3′ UTR sequence,significantly reduced
same,CD63 (EV marker) in cytoplasm by immunofluorescence,[5],accumulation of CD63
same,CD63 (EV marker) in cytoplasm by immunofluorescence,[6],accumulation of CD63
